{
  "source": "paper PMC11530130",
  "about": "“Peripherally restricted PICK1 inhibitor mPD5 ameliorates pain behaviors in murine inflammatory and neuropathic pain models” (JCI Insight, 2024)",
  "key": {"[1]": {"assay": "Plasma exposure after repeated s.c. administration (10 + 2 + 2 + 2 + 2 μmol/kg), LC-MS/MS", "assay_type": "in vivo, mouse", "conditions": "for Plasma exposure, Fig 7B, individual mice: 10µmol/kg repeated", "protocol": "Assessment of plasma levels and biodistribution of mPD5.\nThe mPD5 plasma exposure was determined by (WuXI AppTec (Shanghai, China)) and done following s.c. injection of three male C57BL/6N (vendor: VTLH) mice (7-9 weeks old, fasted) with each concentration of mPD5 (2, 10 and 50 µmol/kg) in sterile PBS. Blood samples were taken 30 min, 1 hour, 2 hours, 5 hours, and 12 hours following injection. For the repeated administration experiment, the initial s.c. injection of 10 µmol/kg was followed by 4 s.c. administrations of 2 µmol/kg with one hour between injections. Following the last injection, blood samples (0.03 mL from saphenous vein or other suitable site) were collected in EDTA- […]\nK2 tubes at 5 min, 30 min, 1 hour, 5 hours, 12 hours, 24 hours, and 48 hours and centrifuged (app 4 ℃, 3200 g, 10 min) for collection of plasma. Plasma was transferred to 96 well plates and quick-frozen over dry ice and kept at -60 ℃ until LC-MS/MS analysis. For LC-MS/MS analysis plasma with 0.25% Triton X100 in 50% MeOH/water (6 µL) was quenched with 160 µL of IS1 (internal standard in MeOH (Labetalol & tolbutamide & Verapamil & dexamethasone & glyburide & Celecoxib 100 ng/mL for each)) and the mixture was vortexed for 10 min at 800 rpm and centrifuged for 15 min at 3220 × g at 4 ℃. An aliquot of 65 µL supernatant was transferred to a clean 96-well plate and centrifuged for 5 min at 3220 × g at 4 ℃, then the supernatant was directly injected for LC-MS/MS analysis. Plasma half-lives were determined from three points in the elimination phase. […]"}, "[2]": {"system": "mice, spared nerve injury (SNI) model", "assay_type": "in vivo, mouse", "conditions": "for von Frey paw withdrawal threshold, ipsilateral paw (Fig 7F): SNI mice, 10 umol/kg, individual animals", "protocol": "solution (0.05 mg/kg) injected s.c. 30 min before surgery (10 μL/g). For surgery, mice were anaesthetised with ketamine (100 mg/kg, i.p.) and xylazine (10 mg/kg, i.p.) (volume 10 µL/g) with 100 μL of 1% xylocaine solution infiltrated at the site of the incision. The distal trifurcation of the sciatic nerve was identified, and the tibial and common peroneal branches were ligated with polypropylene nonabsorbable 6-0 sutures (Ethicon) and 1 mm was cut out, leaving the sural branch intact. The wound was closed with sutures, and the animals were allowed to recover and returned to their cages. Two subcutaneous injections of buprenorphine (0.05 mg/kg) were performed with an 8 to 12 hours delay decreasing pain due to the surgery […]\nThe remaining SNI pain experiments were performed in-house using the following procedure.\nSNI surgery was performed on the left hindleg of C57BL/6J male and female mice (Janvier, France) under 2% isoflurane anaesthesia. Skin on the lateral surface was incised between hip and knee followed by lengthwise division of the biceps femoris muscle leading to exposure of the three branches of the sciatic nerve. Sural branch was left intact, while the peroneal and tibial branches were ligated with a single surgical knot and axotomized distally of the ligation.\nWounds were closed with surgical glue or medical clips and animals were monitored daily for signs of stress or discomfort, but in all cases recovered uneventfully. […]\nThe skin wound was closed with two medical clips (Michel Suture Clips, 7.5x1.75 mm, Angthos, 12040-01). Post-surgical analgesia included s.c. injection of 5 mg/kg carprofen (Carprosan vet, 50 mg/mL mixed 1:25 in sterile ddH2O, Dechra, Le Vet Beheer B.V., Netherlands, Batch: 050520) right after surgery and the […]\nfollowing day. […]\nThe test battery of the CIBP model was carried out 45 or 90 min after morphine and mPD5 administration respectively to accommodate the peak efficacy […]\nMechanically evoked pain (von Frey test).\nUnless otherwise specified, von Frey occurred as described in the following. Animals were habituated to the experimental room for a minimum of 60 min before initiation of the experiment. Mechanical paw withdrawal threshold (PWT) was determined by von Frey measurements of both hind paws. Von Frey filaments ranging from 0.04 to 2 g (g = gram- […]\nFilaments in ascending order were applied to the frontocentral plantar surface of the hind paws.\nMice were placed in PVC plastic boxes (11.5 cm x 14 cm) on a wire mesh and allowed minimum 20 min habituation prior of experiment initiation. Each von Frey hair was applied five times with adequate resting periods between each application and number of withdrawals recorded. The withdrawal threshold was determined as the von Frey filament eliciting at least three positive trials out of the five applications in two consecutive filaments. A positive trial was defined as sudden paw withdrawal, flinching and/or paw licking induced by the filament.\nFor the CIBP model, two habituation sessions were performed on separated days with mice placed in the von Frey equipment for 1-1.5 hours in the presence of the experimenter on day one and random von Frey pocking with the 0.6 g filament on day two. Von Frey monofilaments (North Coast Touch Test, North Coast Medical, Inc.) with target forces of 0.04g, 0.07g, 0.16g, […]\ndown method” (PWT=10Xf+kδ) starting with the 0.6 g filament. Positive response was defined as; withdrawal, shaking or grooming of paw following a 2-3 second stimulation. In case, of unclear response, stimulus was repeated after 10-15 seconds.\nFor the STZ model, the mechanical threshold response of the injected mice was measured with […]\ninjection of test compounds on day 14, mechanical threshold was measured at 1 hour, 2 hours, 4 hours and 6 hours and again on day 15. […]\nThermally evoked pain (Hargreaves test).\nA baseline Hargreaves test was performed on day 0 before inflammatory pain was induced as described in section 2.13. In the Hargreaves test, the mouse was placed in a container on a glass […]"}},
  "note": "Values joined by “and” are separate entries in the source; they are usually repeats but may differ in a detail not shown here. Identical values can stand only once. Like-named read-outs stand apart in the source and are kept apart here.",
  "data": [
    {"smiles": "CCCCCCCCCCCCCC(=O)N(CCOCCOCCC(=O)N[C@@H](Cc1c[nH]cn1)C(=O)N[C@@H](Cc1c[nH]c2ccccc12)C(=O)N[C@@H](CC(C)C)C(=O)N[C@@H](CCCCN)C(=O)N[C@H](C(=O)O)C(C)C)CCOCCOCCC(=O)N[C@@H](Cc1c[nH]cn1)C(=O)N[C@@H](Cc1c[nH]c2ccccc12)C(=O)N[C@@H](CC(C)C)C(=O)N[C@@H](CCCCN)C(=O)N[C@H](C(=O)O)C(C)C", "note": "[mPD5, myristoyl-NPEG4-(HWLKV)2]", "values": [
      {"measurement": "Plasma exposure, Fig 7B, individual mice", "setting": "[1]; time 0.5", "result": "3149 and 2827 and 2358"},
      {"measurement": "Plasma exposure, Fig 7B, individual mice", "setting": "[1]; time 1", "result": "3071 and 3116 and 2251"},
      {"measurement": "Plasma exposure, Fig 7B, individual mice", "setting": "[1]; time 5", "result": "8.66 and 8.95 and 4.61"},
      {"measurement": "half-life", "setting": "[1]; C57BL/6N, mouse, plasma, sc, s.c. 10 μmol/kg followed by 4 x 2 μmol/kg in 1-hour intervals", "result": "31.2 ± 1.2", "unit": "min"},
      {"measurement": "von Frey paw withdrawal threshold, ipsilateral paw (Fig 7F)", "setting": "[2]; time point 8", "result": "0.16 (5×) and 0.4"},
      {"measurement": "von Frey paw withdrawal threshold, ipsilateral paw (Fig 7F)", "setting": "[2]; time point 13", "result": "0.16 (5×) and 0.07"},
      {"measurement": "von Frey paw withdrawal threshold, ipsilateral paw (Fig 7F)", "setting": "[2]; time point BL (baseline)", "result": "1 (2×) and 1.4 (4×)"},
      {"measurement": "von Frey paw withdrawal threshold, ipsilateral paw (Fig 7F)", "setting": "[2]; time point D12 (before dosing)", "result": "0.16 (5×) and 0.07"},
      {"measurement": "effect on mechanical hypersensitivity (PWT)", "setting": "[2]; SNI, single s.c. administration, 8 hours after injection", "result": "no effect on mechanical hypersensitivity"}
    ]}
  ]
}
